US20110003382A1, “USE OF CORTICOSTERONE FOR INCREASING EGG ANTIBODY” (WISCONSIN ALUMNI RESEARCH FOUNDATION, priority 2009, published 2011)

Columns and labels:
[1] = after 1 day of CORT at 20 mg/kg diet in drinking water; cited from earlier work
[2] = tested on: Single Comb White Leghorn hens; experiment: Body weight change (% initial BW); assay type: in vivo
Procedure: (§1) Measurement of body weight and egg production. […] Initial body weight of adult laying hens, 26- to 60-weeks of age, was reported when measured at the beginning of experiments. Data were expressed as a percentage of initial body weight (% initial BW) to determine effects of CORT on change in body weight. Eggs produced were recorded daily for each hen. Laying frequency (or egg production) of each hen during each 7 day period measured, was obtained by dividing the total number of eggs laid by 7.

[3] = tested on: Single Comb White Leghorn hens; experiment: Anti-PLA2 antibody titer in serum of immunized hens by ELISA; assay type: in vivo; conditions: weeks 2 to 3 after primary immunization
Text: (§2) In all Examples, Single Comb White Leghorn hens (SCWL) used were transported as pullets (18- to 22-weeks of age) from S&R Farms (Whitewater, Wis.) to University of Wisconsin—Madison Poultry Research Laboratory. Hens were individually housed in cages with raised bottom floors for at least four weeks before being assigned to an Example, and were 26- to 60-weeks of age at the beginning of experiments. Hens were fed, ad libitum, a standard corn-soybean meal based laying hen diet formulated to meet nutritional requirements. Housing was maintained under an automated lighting schedule with 16:8-h light-dark cycle. All procedures involving animals were approved by Animal Care Committee at University of Wisconsin, Madison.
The antigen selected for comparing the antibody response of hens was a 13 kDa soluble protein antigen, phospholipase A2 (PLA2) purified from porcine pancreas (Novozyme, Bagsvaerd, Denmark; greater than 90% purity based on SDS-PAGE). PLA2 was used because of its commercial relevance, and its previous use as a model antigen for studying hen antibody response (Trott, et al., 2008, “Additions of killed whole cell bacteria preparations to Freund complete adjuvant alter laying hen antibody response to soluble protein antigen,” Poult. Sci., 87(5):912-917). […]
Anti-PLA2 antibody content of egg yolk and serum samples were measured by an ELISA (Trott, et al., 2008). […]

mice = conditions: exogenous corticosterone; cited from earlier work
[4] = tested on: Single Comb White Leghorn hens; experiment: Anti-PLA2 antibody titer in egg yolk of immunized hens by ELISA; assay type: in vivo
Text: as §2
The antigen selected for comparing the antibody response of hens was a 13 kDa soluble protein antigen, phospholipase A2 (PLA2) purified from porcine pancreas (Novozyme, Bagsvaerd, Denmark; greater than 90% purity based on SDS-PAGE). PLA2 was used because of its commercial relevance, and its previous use as a model antigen for studying hen antibody response (Trott, et al., 2008, “Additions of killed whole cell bacteria preparations to Freund complete adjuvant alter laying hen antibody response to soluble protein antigen,” Poult. Sci., 87(5):912-917). Hens were immunized according to methods described by Trott, et al. (2008). The primary immunization for each hen was a water-in-oil emulsion (50:50) that consisted of 3 mg PLA2 dissolved in 0.5 mL phosphate buffer saline (PBS), and emulsified with 0.5 mL of Freund Complete Adjuvant (FCA; DIFCO, Sparks, Md.). Seven days after the primary immunization, each hen received a booster injection containing 3 mg PLA2 dissolved in 0.5 mL PBS and emulsified with Freund Incomplete Adjuvant (FIA; DIFCO). All injections (primary and booster) were administered i.m. into each breast and thigh of hen (1 ml/hen at 0.25 mL/injection site). In all experiments, immunization of hens (primary and booster) occurred at approximately 10 A.M. to eliminate the potential confounding effect of endogenous CORT levels fluctuating due to circadian rhythms.
Based on previous experimentation (Trott et al., 2008; Schade et al., 2001, “Chicken egg yolk antibodies: Production and application,” Springer, Heidelberg, Germany) week three after primary immunization represented peak antibody titer in egg yolk; therefore, eggs were collected once per week beginning on week three and continuing until week eight or ten for repeated testing of anti-PLA2 antibody content using an ELISA (Trott, et al., 2008).
Anti-PLA2 antibody content of egg yolk and serum samples were measured by an ELISA (Trott, et al., 2008). A 96-well Nunc-Immuno Plate with MaxiSorp surface (Thermo Fischer Scientific, Waltham, Mass.) was coated overnight (100 μl per well) with PLA2 (Sigma Aldrich, St. Louis, Mo.) at a concentration of 10 μg/ml in 50 mM sodium bicarbonate. After washing, the plate was blocked (175 μl per well) for at least 1 hour with PBS containing 1% albumin from bovine serum albumin (BSA; Sigma Aldrich). Egg antibody was water-extracted from liquid egg yolk samples. Liquid egg yolk samples […] were pipetted with a positive displacement pipette (Rainin, Oakland, Calif.) and extracted overnight with 1.8 ml acidified PBS (pH 5). The extraction mixture was centrifuged at 1,500×g for 10 minutes, and the supernate was further diluted to 1:16,000 with PBS containing 1% BSA (pH 7). Serum samples were diluted 1:16,000 in PBS containing 1% BSA. In addition to the weekly egg yolk or serum samples, an ‘in-lab standard’ was applied to each ELISA plate. The standard applied to each plate consisted of a 2-fold serial dilution from 1:2,000 to 1:64,000 of water-extracted egg yolks from hens immunized against PLA2 in a previous trial. After coating, blocking, and washing the plate, duplicate samples and ‘in-lab standard’ (100 μl/well) were incubated for 1 hour on the plate followed by washing (6×). […]

broilers = conditions: dietary CORT 30 mg/kg diet for 1 week; cited from earlier work
[5] = tested on: Single Comb White Leghorn hens; experiment: Egg production (laying frequency); assay type: in vivo
Procedure: as §1

laying hens = conditions: cited from earlier work
[6] = tested on: Single Comb White Leghorn hens; experiment: Peripheral blood mononuclear cell (PBMC) counts; assay type: in vivo
Procedure: Peripheral Blood Mononuclear Cell Counts. […] Whole blood (2-3 ml) was collected from wing vein into heparin-containing tubes (Becton Dickinson, Sparks, Md.). In 15-ml conical tubes, blood (2 ml) was layered on an equal volume (2 ml) of 1077 Histopaque (Sigma-Aldrich), and centrifuged at 400×g for 30 minutes at room temperature. Mononuclear cells were collected from the gradient interface, and re-suspended in PBS to the original blood volume (2 ml) or the sample. PBMCs were further diluted (1:16) in PBS, mixed with an equal volume of 0.4% trypan blue solution (Sigma-Aldrich), and counted, microscopically, with the aid of a hemacytometer.

chicken = conditions: feeding CORT 20-80 mg/kg diet; cited from earlier work
[7] = Example 3: CORT 5 days, week 1 after diet administration
[8] = Example 4: CORT 6 days, weeks 4 to 10 after primary immunization

C[C@]12C[C@H](O)[C@H]3[C@@H](CCC4=CC(=O)CC[C@@]43C)[C@@H]1CC[C@@H]2C(=O)CO [CORT, corticosterone]
plasma CORT concentrations [1]: significant increase | effect of CORT on body weight (% initial BW) vs control-fed hens ([2]; Example 3: CORT 5 days, p=0.27): no effect | body weight higher than initial body weight [2, 7]: 11.4% | body weight higher than initial body weight ([2]; Example 3: CORT 5 days, week 2): 10.5% | body weight vs initial body weight ([2]; Example 3: CORT 5 days, week 5 after diet administration, p=0.57): not different from initial body weight | body weight higher than initial body weight ([2]; Example 4: CORT 6 days, weeks 1 to 3 after diet administration): 13.3% | serum antibody titer (Log2 titer) ([3]; Example 4: CORT 30 mg/kg diet for 6 days beginning on day 1 before primary immunization): 17.65 Log2 titer | fold higher serum antibody titer vs control hens ([3]; Example 4: CORT 6 days, p=0.008): 4.9 fold | mouse T-dependent antibody response to sheep erythrocytes (mice): increased | difference in antibody titer of egg yolks vs control-fed hens ([4]; Example 2: CORT 30 mg/kg diet for 2 days beginning on day 1 before primary immunization, weeks 3 to 6, p=0.24): no difference | antibody titer of egg yolks (Log2 titer) ([4]; Example 2: CORT 30 mg/kg diet for 2 days beginning on day 1 before primary immunization, weeks 3 to 6 after primary immunization): 15.52 Log2 titer | antibody titer of egg yolks (Log2 titer) ([4]; Example 3: CORT 30 mg/kg diet for 5 days beginning on day 7 before primary immunization, weeks 3 to 5 after primary immunization): 17.02 Log2 titer | difference in antibody titer of egg yolks vs control-fed hens ([4]; Example 3: CORT for 5 days beginning on day 7 before primary immunization, weeks 3 to 5, p=0.96): no difference | egg yolk antibody titer (Log2 titer) ([4]; Example 4: CORT 30 mg/kg diet for 6 days beginning on day 1 before primary immunization, weeks 3 to 5): 17.32 Log2 titer | egg yolk antibody titer (Log2 titer) ([4]; Example 4: CORT 6 days, entire study period weeks 3 to 9): 17.37 Log2 titer | fold higher egg yolk antibody titer vs control-fed hens ([4]; Example 4: CORT 6 days, weeks 3 to 5, p=0.006): 3.1 fold | fold increase in antibody titer of egg yolks vs control hens ([4]; Example 4: CORT 6 days, weeks 3 to 9, p=0.032): 1.8 fold | fold higher antibody titer of egg yolks vs control-fed hens ([4]; Example 5: CORT 9 days, weeks 3 to 10, p=0.00001): 3.0 fold | antibody titer of egg yolks (Log2 titer) ([4]; Example 5: dietary CORT for 9 days beginning on day 1 before primary immunization, weeks 3 to 10 after primary immunization): 16.50 Log2 titer | effect on body weight gain in broilers (broilers): negatively affect | decrease in egg production between week 1 before and week 1 after diet administration ([5]; Example 3: CORT 5 days, p=0.004): 21% | overall difference in egg production vs control-fed hens ([5]; Example 3: CORT 5 days, p=0.57): no overall difference | egg production, overall ([5]; Example 3: CORT 5 days, throughout the Example): 73% | egg production [5, 7]: 50% | egg production less than control-fed hens ([5]; Example 3: CORT 5 days, week 1 after diet administration, p=0.005): 34% | egg production ([5]; Example 3: CORT 5 days, week 2): 62% | egg production less than control-fed hens ([5]; Example 3: CORT 5 days, week 2, p=0.014): 29% | overall egg production less than control-fed hens ([5]; Example 4: CORT 6 days): 35% | egg production suppressed vs control-fed hens ([5]; Example 4: CORT 6 days, week 1 after diet administration): 50% | egg production suppressed vs control-fed hens ([5]; Example 4: CORT 6 days, week 2 after diet administration): 100% | egg production suppressed vs control-fed hens ([5]; Example 4: CORT 6 days, week 3 after diet administration): 80% | overall egg production ([5]; Example 4: CORT 6 days, weeks 0 to 10): 54% | egg production [5, 8]: 69% | egg production lower than control-fed hens [5, 8]: 17% | overall egg production ([5]; Example 5: CORT 9 days): 39% | overall egg production less than control-fed hens ([5]; Example 5: CORT 9 days): 31% | egg production suppressed vs control-fed hens ([5]; Example 5: CORT 9 days, week 4 after diet administration): 80% | egg production ([5]; Example 5: CORT 9 days, week 5 after diet administration): 45% | egg production lower than control-fed hens ([5]; Example 5: CORT 9 days, week 5 after diet administration, p=0.007): 50% | egg production suppressed vs control-fed hens ([5]; Example 5: CORT 9 days, weeks 2 and 3 after diet administration): 60% | egg production ([5]; Example 5: CORT 9 days, weeks 6 to 11 after primary immunization): 53% | egg production lower than control-fed hens ([5]; Example 5: CORT 9 days, weeks 6 to 11 after primary immunization, p=0.001): 14% | egg production (laying hens; after 1 week of dietary CORT 20-40 mg/kg diet): completely suppressed | effect on egg production in laying hens (laying hens; dietary CORT 30 mg/kg diet for 1 week): negatively affect | additional time out of production after removal of CORT (laying hens; dietary CORT 20-40 mg/kg diet for 1 week): 9 to 12 days | overall effect of CORT on PBMC counts ([6]; Example 3: CORT 5 days beginning day 7 before immunization, p=0.82): no effect | PBMC count [6, 7]: 17,800 cells/μl blood | PBMC count as % of control-fed hens ([6]; Example 3: CORT 5 days, week 1 after diet administration, p=0.025): 49% | PBMC count ([6]; Example 3: CORT 5 days, week 2 after diet administration): 35,400 cells/μl blood | PBMC count ([6]; Example 4: CORT 30 mg/kg diet 6 days, week 1 after diet administration): 9,200 cells/μl blood | PBMC count as % of control-fed hens ([6]; Example 4: CORT 6 days, week 1 after diet administration, p<0.0001): 43% | PBMC count ([6]; Example 4: CORT 6 days, week 2): 12,900 cells/μl blood | PBMC count as % of control-fed hens ([6]; Example 4: CORT 6 days, week 2, p=0.001): 59% | PBMC count ([6]; Example 4: CORT 6 days, week 3, returned to control levels, p=0.57): 19,700 cells/μl blood | number of circulating lymphocytes in chicken blood (chicken): markedly decreased
